Measured values reported in PMC8827060, “Identification and characterization of L- and D-lactate-inducible systems from Escherichia coli MG1655, Cupriavidus necator H16 and Pseudomonas species” (Scientific Reports, 2022).

Tested on: T1, CnGntR
T1 construct: gene gntR; full-length TR gene with PH16_RS19190-mRFP1 reporter on plasmid pEA007; host C. necator H16; regulator of cluster H16_RS19175-H16_RS19195, its own locus tag inferred
Assay: mRFP1 reporter dose-response in cells, Hill fit
Assay type: cell-based, Cupriavidus necator
Settings: inducer of transcriptional regulator; half-maximal reporter output; host C. necator H16; minimal medium with 0.4% gluconate, 30 °C, 6 h; Hill coefficient 1.19; read-out: Km
Source text: mRFP1 reporter dose-response in cells, Hill fit on CnGntR

Question: `C[C@H](O)C(=O)O` [L-lactate] was tested. Which EC50 did it give?
Answer: 670 ± 210 µM
